Measurements taken from patent US20220324770A1, “NITRIFICATION INHIBITORS” (The University of Melbourne, priority 2019, published 2022).

Test system: Terang soil
Assay: Soil microcosm incubation (nitrification of applied ammonium), Terang soil
Experimental: The soil used in this study was collected from four different locations in Victoria, Australia: (i) a wheat cropping soil from Horsham (36° 45′S, 142° 07′ E), (ii) a rotational cropping soil from Dahlen (36° 37′S, 142° 09′ E), (iii) a vegetable growing soil from Clyde (38° 08′S, 145° 20′ E), and (iv) a pasture soil from Terang (38° 15′S, 142° 52′E). In addition, a sugarcane cropping soil from South Johnstone in northern Queensland (17° 34′S, 145° 57′ E) was also studied. The water content of the soil was calculated before commencing each experiment, from samples that were oven-dried to constant weight. The soil's water-filled pore space (WFPS) was in the range 52%-61%, which is within the recommended 50-70% range for microbial activity due to oxygen and nutrient availability (Fichtner, T., et al., Applied Sciences, 2019, 9, 496).
Soil microcosm incubations were carried out in 250 ml polypropylene specimen containers (Sarstedt, Germany), containing 18.24 g oven dry-weight equivalent of soil. Microcosms were re-wetted and pre-incubated at the test temperature for seven days to revive soil microbial activity. Following pre-incubation, the remaining volume to reach the desired water-filled pore spaces (WFPS %) was applied as one of the following treatment solutions; (NH4)2SO4(Control), (NH4)2SO4+DMPP, or (NH4)2SO4+one of Compounds 1-23. Each treatment was applied in triplicate per soil type, so that n=3 at each time point.
Treatment solutions were prepared such that each microcosm received (NH4)2SO4 at a rate of 100 mg N per kg soil, Compounds 1-23 at 10 mol % of applied N, or DMPP at one of 1.5, 3.6 or 10 mol % of applied N, referred to as L-DMPP, M-DMPP or H-DMPP respectively.
The microcosms were incubated for 0, 3, 7, 14, 21 or 28 days, where day 0 samples were extracted following 1-hour incubation post-treatment. Soil microcosms were aerated and moisture levels were replenished based on weight loss every few days throughout the incubation period.
At the end of each incubation period, soil microcosms were destructively sampled by treatment with 2M KCl (100 mL). After shaking for 1 hour, soil-KCl solutions were filtered (Whatman 42) before storing the filtrates at −20° C. until the conclusion of the experiment. All KCl extracts were then analysed by Segmented Flow Analysis (San++, Skalar, Breda, The Netherlands) for the concentration of nitrogen from ammonium (NH4^+—N) and nitrogen from NO3 and NO2 (NOx^−—N) after appropriate dilutions. Results are reported as the mean of three replicates, errors reported are standard errors of the mean.
Nitrification calculations were performed as previously reported (Aulakh, M., et al., Biology and Fertility of Soils 2001, 33, 258-263; Mahmood, T., et al., Soil Research 2017, 55, 715-722) without correction for the initial baseline concentrations of NH4^+—N or NO3^− N in the untreated soil. For each treatment nitrified NH4^+—N (%) was calculated according to eqn. 1:
where [NH4^+—N]0 is the NH4^+—N concentration (in mg N kg^−1 soil) of the soil on day 0 and [NH4^+—N]t is the NH4^+—N concentration (in mg N kg^−1 soil) of the soil at a given time point t.

## Cc1c[nH]nc1C.O=P(O)(O)O [DMPP, 3,4-dimethylpyrazole phosphate, reference compound]
Terang soil pH 6.5, 25° C., day 3, compounds 10 mol % of applied N, L-DMPP 1.5 mol %, (NH4)2SO4 100 mg N per kg soil
  Nitrified NH4+—N (%) Day 3: 23.5 ± 3.7%
Terang soil pH 6.5, 25° C., day 7, compounds 10 mol %, L-DMPP 1.5 mol %
  Nitrified NH4+—N (%) Day 7: 47.8 ± 2.0%
Terang soil pH 6.5, 25° C., day 14, compounds 10 mol %, L-DMPP 1.5 mol %
  Nitrified NH4+—N (%) Day 14: 89.6 ± 3.1%
Terang soil pH 6.5, 25° C., day 28, compounds 10 mol %, L-DMPP 1.5 mol %
  Nitrified NH4+—N (%) Day 28: 100 ± 2.5%
Terang soil, 25° C.
  retaining NH4+—N in the soil compared with the fertilised control: most effective treatments
